In brackets after ≈: the same amount, converted by molar mass. Where a name gives a salt, the structure may show the parent alone. Read-outs that look alike come from different tables or passages of the source.
Key:
Candida albicans = conditions: broth microdilution, p < 0.05; cited from earlier work
Text: Candida species infections can cause complications for individuals with dentures, such as denture stomatitis.

C. albicans HMV4C = test: microbe, parasite or virus in culture; conditions: radial diffusion; for Activity in gels with 1.0% denture adhesive compared with gels without / Minimal inhibitory concentration (MIC): C. albicans HMV4C; for Activity in gels with 1.0% denture adhesive compared with gels without: result in words, Tukey HSD, 0.05 level; for MIC: Candida albicans, HMV4C; for MIC / Minimal inhibitory concentration (MIC): mean (standard error, n = 3)
Description: (§1) C. albicans strains ATCC 64124 and HMV4C were used and cultivated as previously described. Their identities were verified (State Hygienic Laboratory, University of Iowa Research Park, Coralville, IA, USA). These cultures were adjusted to contain 1.2–3.7 × 10^6 CFU/mL in Roswell Park Memorial Institute (RPMI) 1640 medium.
(§2) The denture adhesive used was a standard, over-the-counter gel containing poly sodium-calcium mixed partial salt, petrolatum, cellulose gum, and mineral oil and was prepared as previously described. Denture adhesive was too viscous to use directly and was diluted to 1.0% for incorporation into the radial diffusion assay.
(§3) Each agent was reconstituted in distilled water with 0.01% acetic acid for resuspension to keep the agent in solution. Two-fold dilutions were prepared.
(§4) The radial diffusion assays were performed as described with the following unique modifications. Underlay agarose gels were prepared with and without 1.0% denture adhesive in square petri dishes (Electron Microscopy Sciences, Hatfield, PA, USA). Plates without 1.0% adhesive contained 12.5 mL of 10.0 mM sodium phosphate buffer adjusted to pH 7.4, 12.5 mL of 2.0% agarose (Agarose LE, Roche Diagnostics Corporation, Indianapolis, IN, USA) in 10.0 mM sodium phosphate adjusted to pH 7.4, and 1.0 mL of C. albicans culture per plate. Plates with 1.0% adhesive contained 12.5 mL of 2.0% dental adhesive in 10.0 mM sodium phosphate adjusted to pH 7.4, 12.5 mL 2.0% agarose (Agarose LE, Roche Diagnostics Corporation, Indianapolis, IN, USA) in 10.0 mM sodium phosphate adjusted to pH 7.4, and 1.0 mL of C. albicans culture. Wells of 2.0 mm in diameter were created and filled with 5.0 µL of AMP or antifungal antibiotic dilution (n = three replications per test). A blank of 0.01% acetic acid in distilled water was also included. The plates were incubated at 37 °C for 3 h. After incubation, 10.0 mL of overlay containing 1.0% agarose in 10.0 mM phosphate buffer with 6.0% RPMI 1640, was added to each plate. The plates were incubated at 37 °C overnight. At 24 h, antimicrobial activity was determined by measuring the zone of clearance around the center of each well and extrapolating MIC as described.
(§5) When MICs fell outside the range of the assay, we considered the MIC to be equal to the highest concentration used in the assay. […] One-way fixed-effects ANOVA models were fit to the µM MIC values. Pairwise group comparisons were conducted using the method of Tukey’s Honest Significant Differences (HSD). A 0.05 level was used to determine statistically significant differences. All analyses were conducted using JMP (Version 10.0, SAS, Cary, NC, USA).

C. albicans ATCC 64124 = test: microbe, parasite or virus in culture; conditions: for Activity in gels with 1.0% denture adhesive compared with gels without / Minimal inhibitory concentration (MIC): C. albicans ATCC 64124; for Activity in gels with 1.0% denture adhesive compared with gels without: result in words, Tukey HSD, 0.05 level; for MIC: Candida albicans
Description: as §1, §2, §3, §4, §5

[1] = 24 h, pH 7.4, read-out: Minimal inhibitory concentration (MIC), C. albicans HMV4C, Adhesive (1.0% denture adhesive in gel), pH 7.4, 37 °C, read at 24 h
[2] = 24 h, pH 7.4, read-out: Minimal inhibitory concentration (MIC), C. albicans HMV4C, No Adhesive, agarose in 10.0 mM sodium phosphate pH 7.4, 37 °C, read at 24 h
[3] = read-out: Minimal inhibitory concentration (MIC), C. albicans HMV4C, Adhesive (1.0% denture adhesive in gel)
[4] = read-out: Minimal inhibitory concentration (MIC), C. albicans HMV4C, No Adhesive
[5] = ATCC64124, 24 h, pH 7.4, read-out: Minimal inhibitory concentration (MIC), C. albicans ATCC 64124, Adhesive (1.0% denture adhesive in gel), radial diffusion, pH 7.4, 37 °C, read at 24 h, mean (standard error, n = 3)
[6] = ATCC64124, 24 h, pH 7.4, read-out: Minimal inhibitory concentration (MIC), C. albicans ATCC 64124, No Adhesive, radial diffusion, pH 7.4, 37 °C, read at 24 h, mean (standard error, n = 3)
[7] = ATCC64124, read-out: Minimal inhibitory concentration (MIC), C. albicans ATCC 64124, Adhesive (1.0% denture adhesive in gel), radial diffusion, mean (standard error, n = 3)
[8] = ATCC64124, read-out: Minimal inhibitory concentration (MIC), C. albicans ATCC 64124, No Adhesive, radial diffusion, mean (standard error, n = 3)
[9] = Adhesive (1.0% denture adhesive in gel), pH 7.4, 37 °C, read at 24 h
[10] = Adhesive (1.0% denture adhesive in gel)
[11] = No Adhesive, agarose in 10.0 mM sodium phosphate pH 7.4, 37 °C, read at 24 h
[12] = Adhesive (1.0% denture adhesive in gel), radial diffusion, pH 7.4, 37 °C, read at 24 h, mean (standard error, n = 3)
[13] = Adhesive (1.0% denture adhesive in gel), radial diffusion, mean (standard error, n = 3)
[14] = No Adhesive, radial diffusion, pH 7.4, 37 °C, read at 24 h, mean (standard error, n = 3)
[15] = No Adhesive, radial diffusion, mean (standard error, n = 3)

SMILES	Loss of antimicrobial activity in 1.0% denture adhesive (Candida albicans)	Activity in gels with 1.0% denture adhesive compared with gels without (C. albicans HMV4C)	MIC (C. albicans HMV4C; [1])	MIC (C. albicans HMV4C; [2])	MIC (C. albicans HMV4C; [3])	MIC (C. albicans HMV4C; [4])	Activity in gels with 1.0% denture adhesive compared with gels without (C. albicans ATCC 64124; radial diffusion)	MIC (C. albicans ATCC 64124; [5])	MIC (C. albicans ATCC 64124; [6])	MIC (C. albicans ATCC 64124; [7])	MIC (C. albicans ATCC 64124; [8])	Minimal inhibitory concentration (MIC) (C. albicans HMV4C; [9])	Minimal inhibitory concentration (MIC) (C. albicans HMV4C; [10])	Minimal inhibitory concentration (MIC) (C. albicans HMV4C; [11])	Minimal inhibitory concentration (MIC) (C. albicans HMV4C; No Adhesive)	Minimal inhibitory concentration (MIC) (C. albicans ATCC 64124; [12])	Minimal inhibitory concentration (MIC) (C. albicans ATCC 64124; [13])	Minimal inhibitory concentration (MIC) (C. albicans ATCC 64124; [14])	Minimal inhibitory concentration (MIC) (C. albicans ATCC 64124; [15])	also measured
[H]/N=C(\N/C(=N/[H])NCCCCCCNC(=N)NC(=N)Nc1ccc(Cl)cc1)Nc1ccc(Cl)cc1 [Chlorhexidine dihydrochloride]	did not	same	11.1 µg/mL	5.7 µg/mL	19.2 µM	9.9 µM	same	4.6 µg/mL	6.9 µg/mL	8 µM	11.9 µM	–	–	–	–	–	–	–	–	–
N=C(NCCCCCCNC(=N)NC(=N)Nc1ccc(Cl)cc1)NC(=N)Nc1ccc(Cl)cc1.O=C(O)[C@H](O)[C@@H](O)[C@H](O)[C@H](O)CO.O=C(O)[C@H](O)[C@@H](O)[C@H](O)[C@H](O)CO [Chlorhexidine gluconate]	did not	same antimicrobial activity	–	–	–	–	diminished antimicrobial activity	–	–	–	–	0.7 (0.4) µg/mL	0.8 (0.4) µM	6.3 (0.1) µg/mL	7.0 (0.1) µM	81.6 (3.2) µg/mL	90.9 (3.6) µM	4.1 (0.2) µg/mL	4.6 (0.2) µM	–
OC(Cn1cncn1)(Cn1cncn1)c1ccc(F)cc1F [Fluconazole]	did not	same	8.1 µg/mL	3.9 µg/mL	26.4 µM	12.7 µM	same	> 1000 µg/mL	> 1000 µg/mL	> 3270 µM	> 3270 µM	–	–	–	–	–	–	–	–	Minimal inhibitory concentration (MIC) (C. albicans ATCC 64124; in both gels with or without 1.0% denture adhesive): 3265.1 µM (≈ 1000 µg/mL); MIC (C. albicans ATCC 64124; ATCC64124, read-out: Minimal inhibitory concentration (MIC), C. albicans ATCC 64124, in both gels with or without 1.0% denture adhesive): > 1000 µg/mL
CC[C@H](C)[C@@H]1NC(=O)[C@H](CO)NC(=O)[C@@H]2CCCN2C(=O)[C@H](C)NC(=O)CNC(=O)[C@H](CC(C)C)NC(=O)[C@H](CCCCN)NC(=O)[C@H](CCCCN)NC(=O)[C@H](CCSC)NC(=O)[C@H](CCCNC(=N)N)NC(=O)[C@H](Cc2c[nH]c3ccccc23)NC(=O)[C@H](CCC(N)=O)NC(=O)[C@H](Cc2c[nH]c3ccccc23)NC(=O)[C@H](CCCNC(=N)N)NC(=O)[C@H](CCCNC(=N)N)NC(=O)[C@@H](NC(=O)[C@H](CCCCN)NC(=O)[C@@H](N)Cc2ccccc2)CSSC[C@@H](C(=O)N[C@H](C(=O)N[C@@H](CCCNC(=N)N)C(=O)N[C@@H](CCCNC(=N)N)C(=O)N[C@@H](C)C(=O)N[C@@H](Cc2ccccc2)C(=O)O)C(C)C)NC(=O)[C@H]([C@@H](C)O)NC1=O [Lactoferricin B]	lost antimicrobial activity	diminished activity	–	–	–	–	diminished activity	–	–	–	–	–	–	–	–	–	–	–	–	–
C[C@@H]1[C@H](O)[C@@H](C)/C=C/C=C/CC/C=C/C=C/C=C/C=C/C(O[C@H]2O[C@H](C)[C@@H](O)[C@H](N)[C@@H]2O)CC2O[C@](O)(CC(O)C(O)CCC(O)CC(O)CC(O)CC(=O)O[C@H]1C)CC(O)C2C(=O)O (stereo partly shown) [Nystatin]	did not	diminished	–	–	–	–	diminished	–	–	–	–	137.2 (8.2) µg/mL	148.1 (8.9) µM	9.4 (0.2) µg/mL	10.2 (0.2) µM	61.0 (2.5) µg/mL	65.9 (2.7) µM	9.7 (0.2) µg/mL	10.5 (0.2) µM	–

From PMC5372986, “Diminished Antimicrobial Peptide and Antifungal Antibiotic Activities against Candida albicans in Denture Adhesive” (Antibiotics, 2017)
